According to PubChem BioAssay AID1963435 (Molecular Pharmacology Branch, DTP, NCI, 2024):
Where “and” joins values, the source holds several entries; their conditions need not be identical. Equal entries are not always repeated. One block for each molecule: values may come before it.

Test system: PANC-1 complex spheroid growth, percent test/control
Assay: Anticancer human tumor PANC-1 cell line growth inhibition [Asc];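 also: spheroids exposed to agents for 7 days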;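 as to viability, T/C: percent viability relative to DMSO vehicle wells taken as 100%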
Conditions: for viability, T/C: stronger effect = lower value
Procedure, shortened: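 Complex spheroids combining tumor cells with HUVEC endothelial cells and human MSCs, at 37 degrees C, 5% CO2; agents tested alone or combined, half-log dilutions from at or near clinical Cmax, or 10 microM if Cmax unknown.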

IC50 (curve of first compound, second compound 0.00316 µM): > 10 µM
IC50 (curve of first compound, second compound 0.01 µM): > 10 µM
IC50 (curve of first compound, second compound 0.0316 µM): > 10 µM
IC50 (curve of first compound, second compound 0.1 µM): > 10 µM
IC50 (curve of first compound, second compound 0.316 µM): > 10 µM
IC50 (curve of first compound, second compound 1 µM): > 10 µM
Structure (SMILES): C=CC(=O)N1CCN(c2nc(=O)n(-c3c(C)ccnc3C(C)C)c3nc(-c4c(O)cccc4F)c(F)cc23)C(C)C1 (stereo not given) + CNC(C)C(=O)NC1CN(S(=O)(=O)c2cccc(S(=O)(=O)N3CCC4CCC(C(=O)NC(c5ccccc5)c5ccccc5)N4C(=O)C(NC(=O)C(C)NC)C3)c2)CCC2CCC(C(=O)NC(c3ccccc3)c3ccccc3)N2C1=O
viability, T/C (second compound 0.00316 µM, first compound 0.0316 µM): 103%
viability, T/C (second compound 0.00316 µM, first compound 0.1 µM): 88.3%
viability, T/C (second compound 0.00316 µM, first compound 0.316 µM): 103%
viability, T/C (second compound 0.00316 µM, first compound 1 µM): 92.3%
viability, T/C (second compound 0.00316 µM, first compound 3.16 µM): 118%
viability, T/C (second compound 0.00316 µM, first compound 10 µM): 97.5%
viability, T/C (second compound 0.01 µM, first compound 0.0316 µM): 100%
viability, T/C (second compound 0.01 µM, first compound 0.1 µM): 92.8%
viability, T/C (second compound 0.01 µM, first compound 0.316 µM): 102%
viability, T/C (second compound 0.01 µM, first compound 1 µM): 97%
viability, T/C (second compound 0.01 µM, first compound 3.16 µM): 101%
viability, T/C (second compound 0.01 µM, first compound 10 µM): 95%
viability, T/C (second compound 0.0316 µM, first compound 0.0316 µM): 91.2%
viability, T/C (second compound 0.0316 µM, first compound 0.1 µM): 94.1%
viability, T/C (second compound 0.0316 µM, first compound 0.316 µM): 102%
viability, T/C (second compound 0.0316 µM, first compound 1 µM): 95.8%
viability, T/C (second compound 0.0316 µM, first compound 3.16 µM): 105%
viability, T/C (second compound 0.0316 µM, first compound 10 µM): 93.3%
viability, T/C (second compound 0.1 µM, first compound 0.0316 µM): 102%
viability, T/C (second compound 0.1 µM, first compound 0.1 µM): 96.2%
viability, T/C (second compound 0.1 µM, first compound 0.316 µM): 100%
viability, T/C (second compound 0.1 µM, first compound 1 µM): 100%
viability, T/C (second compound 0.1 µM, first compound 3.16 µM): 89.7%
viability, T/C (second compound 0.1 µM, first compound 10 µM): 88.6%
viability, T/C (second compound 0.316 µM, first compound 0.0316 µM): 98.2%
viability, T/C (second compound 0.316 µM, first compound 0.1 µM): 92.3%
viability, T/C (second compound 0.316 µM, first compound 0.316 µM): 112%
viability, T/C (second compound 0.316 µM, first compound 1 µM): 96.4%
viability, T/C (second compound 0.316 µM, first compound 3.16 µM): 86.2%
viability, T/C (second compound 0.316 µM, first compound 10 µM): 94.2%
viability, T/C (second compound 1 µM, first compound 0.0316 µM): 94.7%
viability, T/C (second compound 1 µM, first compound 0.1 µM): 91.2%
viability, T/C (second compound 1 µM, first compound 0.316 µM): 109%
viability, T/C (second compound 1 µM, first compound 1 µM): 94.2%
viability, T/C (second compound 1 µM, first compound 3.16 µM): 97.1%
viability, T/C (second compound 1 µM, first compound 10 µM): 96.3%

IC50 (curve of first compound, second compound 0.00949 µM): > 10 µM
IC50 (curve of first compound, second compound 0.03 µM): > 10 µM
IC50 (curve of first compound, second compound 0.0949 µM): > 10 µM
IC50 (curve of first compound, second compound 0.3 µM): > 10 µM
IC50 (curve of first compound, second compound 0.949 µM): > 10 µM
IC50 (curve of first compound, second compound 3 µM): > 10 µM
Structure (SMILES): C#Cc1c(F)ccc2cc(O)cc(-c3ncc4c(N5CC6CCC(C5)N6)nc(OCC56CCCN5CC(F)C6)nc4c3F)c12 (stereo not given) + CCN1C(C(=O)NC23CCC(C(=O)O)(CC2)CC3)C(c2cccc(Cl)c2F)C2(C(=O)Nc3cc(Cl)ccc32)C12CCCCC2
viability, T/C (second compound 0.00949 µM, first compound 0.0316 µM): 99.1%
viability, T/C (second compound 0.00949 µM, first compound 0.1 µM): 79.1%
viability, T/C (second compound 0.00949 µM, first compound 0.316 µM): 89.9%
viability, T/C (second compound 0.00949 µM, first compound 1 µM): 90.8%
viability, T/C (second compound 0.00949 µM, first compound 3.16 µM): 96.3%
viability, T/C (second compound 0.00949 µM, first compound 10 µM): 84%
viability, T/C (second compound 0.03 µM, first compound 0.0316 µM): 93.3%
viability, T/C (second compound 0.03 µM, first compound 0.1 µM): 90.2%
viability, T/C (second compound 0.03 µM, first compound 0.316 µM): 83.4%
viability, T/C (second compound 0.03 µM, first compound 1 µM): 92.6%
viability, T/C (second compound 0.03 µM, first compound 3.16 µM): 94.3%
viability, T/C (second compound 0.03 µM, first compound 10 µM): 82.3%
viability, T/C (second compound 0.0949 µM, first compound 0.0316 µM): 94%
viability, T/C (second compound 0.0949 µM, first compound 0.1 µM): 84.3%
viability, T/C (second compound 0.0949 µM, first compound 0.316 µM): 85%
viability, T/C (second compound 0.0949 µM, first compound 1 µM): 82.2%
viability, T/C (second compound 0.0949 µM, first compound 3.16 µM): 90.6%
viability, T/C (second compound 0.0949 µM, first compound 10 µM): 88.8%
viability, T/C (second compound 0.3 µM, first compound 0.0316 µM): 97%
viability, T/C (second compound 0.3 µM, first compound 0.1 µM): 84.3%
viability, T/C (second compound 0.3 µM, first compound 0.316 µM): 92.6%
viability, T/C (second compound 0.3 µM, first compound 1 µM): 93.2%
viability, T/C (second compound 0.3 µM, first compound 3.16 µM): 98.7%
viability, T/C (second compound 0.3 µM, first compound 10 µM): 90.9%
viability, T/C (second compound 0.949 µM, first compound 0.0316 µM): 98.4%
viability, T/C (second compound 0.949 µM, first compound 0.1 µM): 85.5%
viability, T/C (second compound 0.949 µM, first compound 0.316 µM): 92.8%
viability, T/C (second compound 0.949 µM, first compound 1 µM): 90.5%
viability, T/C (second compound 0.949 µM, first compound 3.16 µM): 93.7%
viability, T/C (second compound 0.949 µM, first compound 10 µM): 82.8%
viability, T/C (second compound 3 µM, first compound 0.0316 µM): 104%
viability, T/C (second compound 3 µM, first compound 0.1 µM): 91.7%
viability, T/C (second compound 3 µM, first compound 0.316 µM): 89.2%
viability, T/C (second compound 3 µM, first compound 1 µM): 87.7%
viability, T/C (second compound 3 µM, first compound 3.16 µM): 95.1%
viability, T/C (second compound 3 µM, first compound 10 µM): 82.6%

IC50 (compound alone, run of 11/07/2022): > 10 µM
Structure (SMILES): Cc1c(S(C)(=O)=O)c(-c2cc(F)cc(N3CCN(c4ccc(NS(=O)(=O)c5ccc(NC(CCN6CCC(C(=O)OCCCP(=O)(O)O)CC6)CSc6ccccc6)c(S(=O)(=O)C(F)(F)F)c5)cc4)CC3)c2)c(-c2ccc(Cl)cc2)n1C(C)C (stereo not given)
viability, T/C (compound 0.0316 µM): 106% [middle of 7 runs]
viability, T/C (compound 0.1 µM): 108% [middle of 7 runs]
viability, T/C (compound 3.16 µM): 109% [middle of 7 runs]

IC50 (curve of compound): > 10 µM
Structure (SMILES): C#Cc1c(F)ccc2cc(O)cc(-c3ncc4c(N5CC6CCC(C5)N6)nc(OCC56CCCN5CC(F)C6)nc4c3F)c12 (stereo not given)
viability, T/C (compound 0.0316 µM): 105% and 87.8% and 92.5%
viability, T/C (compound 0.1 µM): 80% and 75.7% and 88.9%
viability, T/C (compound 0.316 µM): 93.9% and 85.8% and 83.5%
viability, T/C (compound 1 µM): 79.9% and 80.1% and 84%
viability, T/C (compound 3.16 µM): 86.8% and 83.7% and 86.3%
viability, T/C (compound 10 µM): 85.4% and 84.5% and 92.1%
